From ChEMBL document CHEMBL3885861, “Open TG-GATES”

Species: Rattus norvegicus
Assay: Open TG-GATES - Regimen: Daily Repeat
Type: toxicity, organism-based, Sprague-Dawley
Design: regimen Daily Repeat, gender Male, age 6 weeks
Conditions: in vivo, po, 40 mg/kg, route gavage, dose level Low; for APTT / Bas / Eos / Fbg / Hb / Ht / Lym / MCH / MCHC / MCV / Mono / Neu / PT / Plat / RBC / Ret / WBC: tissue Blood; for KIDNEY_L / KIDNEY_R / KIDNEY_TOTAL: tissue Kidney; for LIVER: tissue Liver; for A/G / ALP / ALT / AST / BUN / CRE / Ca / Cl / DBIL / GLC / IP / K / LDH / Na / PL / RALB / TBIL / TC / TG / TP / gamma-GTP: tissue Plasma

Cc1cccc(C)c1OCC(C)N (configuration not stated) [MEXILETINE]
TERMINAL_BW (72 h, time 3 day): 247.9 g
APTT (72 h, time 3 day): 21.7 s
Bas (72 h, time 3 day): 0%
Eos (72 h, time 3 day): 0.8%
Fbg (72 h, time 3 day): 327.2 mg/dL
Hb (72 h, time 3 day): 13 g/dL
Ht (72 h, time 3 day): 39.6%
Lym (72 h, time 3 day): 79.8%
MCH (72 h, time 3 day): 20.3 pg
MCHC (72 h, time 3 day): 32.7%
MCV (72 h, time 3 day): 62.1 fL
Mono (72 h, time 3 day): 3.2%
Neu (72 h, time 3 day): 15.6%
PT (72 h, time 3 day): 15.2 s
Plat (72 h, time 3 day): 118.3 x10_4/uL
RBC (72 h, time 3 day): 638.4 x10_4/ul
Ret (72 h, time 3 day): 6.1%
WBC (72 h, time 3 day): 92 x10_2/uL
KIDNEY_L (72 h, time 3 day): 1.1 g
KIDNEY_R (72 h, time 3 day): 1.1 g
KIDNEY_TOTAL (72 h, time 3 day): 2.1 g
LIVER (72 h, time 3 day): 12.1 g
A/G (72 h, time 3 day): 1.3
ALP (72 h, time 3 day): 1808.2 IU/L
ALT (72 h, time 3 day): 47.4 IU/L
AST (72 h, time 3 day): 72.6 IU/L
BUN (72 h, time 3 day): 16.2 mg/dL
CRE (72 h, time 3 day): 0.1 mg/dL
Ca (72 h, time 3 day): 10.5 mg/dL
Cl (72 h, time 3 day): 105.2 meq/L
DBIL (72 h, time 3 day): 0 mg/dL
GLC (72 h, time 3 day): 192.4 mg/dL
IP (72 h, time 3 day): 7.7 mg/dL
K (72 h, time 3 day): 4.4 meq/L
LDH (72 h, time 3 day): 147.4 IU/L
Na (72 h, time 3 day): 141 meq/L
PL (72 h, time 3 day): 151 mg/dL
RALB (72 h, time 3 day): 3.2 g/dL
TBIL (72 h, time 3 day): 0.006 mg/dL
TC (72 h, time 3 day): 77.6 mg/dL
TG (72 h, time 3 day): 133.8 mg/dL
TP (72 h, time 3 day): 5.6 g/dL
gamma-GTP (72 h, time 3 day): 1.6 IU/L
TERMINAL_BW ([…], time 7 day): 275.8 g
TERMINAL_BW ([…], time 14 day): 338.1 g
TERMINAL_BW ([…], time 28 day): 397.8 g
APTT ([…], time 7 day): 22.5 s
Bas ([…], time 7 day): 0%
Eos ([…], time 7 day): 1%
Fbg ([…], time 7 day): 317.4 mg/dL
Hb ([…], time 7 day): 13 g/dL
Ht ([…], time 7 day): 39.9%
Lym ([…], time 7 day): 81%
MCH ([…], time 7 day): 20.4 pg
MCHC ([…], time 7 day): 32.5%
MCV ([…], time 7 day): 62.8 fL
Mono ([…], time 7 day): 2.4%
Neu ([…], time 7 day): 15%
PT ([…], time 7 day): 16 s
Plat ([…], time 7 day): 107.4 x10_4/uL
RBC ([…], time 7 day): 634.4 x10_4/ul
Ret ([…], time 7 day): 6.2%
WBC ([…], time 7 day): 105.8 x10_2/uL
APTT ([…], time 14 day): 20.9 s
Bas ([…], time 14 day): 0%
Eos ([…], time 14 day): 0.4%
Fbg ([…], time 14 day): 302.8 mg/dL
Hb ([…], time 14 day): 13.1 g/dL
Ht ([…], time 14 day): 40.8%
Lym ([…], time 14 day): 80.4%
MCH ([…], time 14 day): 20.6 pg
MCHC ([…], time 14 day): 32.1%
MCV ([…], time 14 day): 64.2 fL
Mono ([…], time 14 day): 2.2%
Neu ([…], time 14 day): 16%
PT ([…], time 14 day): 15.9 s
Plat ([…], time 14 day): 119 x10_4/uL
RBC ([…], time 14 day): 634.2 x10_4/ul
Ret ([…], time 14 day): 7.8%
WBC ([…], time 14 day): 92.2 x10_2/uL
APTT ([…], time 28 day): 22.8 s
Bas ([…], time 28 day): 0%
Eos ([…], time 28 day): 1%
Fbg ([…], time 28 day): 323.4 mg/dL
Hb ([…], time 28 day): 14.9 g/dL
Ht ([…], time 28 day): 43.2%
Lym ([…], time 28 day): 79.8%
MCH ([…], time 28 day): 19.4 pg
MCHC ([…], time 28 day): 34.5%
MCV ([…], time 28 day): 56.3 fL
Mono ([…], time 28 day): 2.4%
Neu ([…], time 28 day): 15.6%
PT ([…], time 28 day): 15.9 s
Plat ([…], time 28 day): 101.8 x10_4/uL
RBC ([…], time 28 day): 766.6 x10_4/ul
Ret ([…], time 28 day): 2.8%
WBC ([…], time 28 day): 104.7 x10_2/uL
KIDNEY_L ([…], time 7 day): 1.1 g
KIDNEY_R ([…], time 7 day): 1.1 g
KIDNEY_TOTAL ([…], time 7 day): 2.2 g
KIDNEY_L ([…], time 14 day): 1.3 g
KIDNEY_R ([…], time 14 day): 1.3 g
KIDNEY_TOTAL ([…], time 14 day): 2.6 g
KIDNEY_L ([…], time 28 day): 1.4 g
KIDNEY_R ([…], time 28 day): 1.4 g
KIDNEY_TOTAL ([…], time 28 day): 2.9 g
LIVER ([…], time 7 day): 12.7 g
LIVER ([…], time 14 day): 15.2 g
LIVER ([…], time 28 day): 17.1 g
A/G ([…], time 7 day): 1.2
ALP ([…], time 7 day): 1628.6 IU/L
ALT ([…], time 7 day): 47.8 IU/L
AST ([…], time 7 day): 72.4 IU/L
BUN ([…], time 7 day): 19.6 mg/dL
CRE ([…], time 7 day): 0.2 mg/dL
Ca ([…], time 7 day): 10.6 mg/dL
Cl ([…], time 7 day): 105.6 meq/L
DBIL ([…], time 7 day): 0 mg/dL
GLC ([…], time 7 day): 190 mg/dL
IP ([…], time 7 day): 7.2 mg/dL
K ([…], time 7 day): 4 meq/L
LDH ([…], time 7 day): 162.8 IU/L
Na ([…], time 7 day): 143.2 meq/L
PL ([…], time 7 day): 145.2 mg/dL
RALB ([…], time 7 day): 3 g/dL
TBIL ([…], time 7 day): 0.002 mg/dL
TC ([…], time 7 day): 82 mg/dL
TG ([…], time 7 day): 108.8 mg/dL
TP ([…], time 7 day): 5.6 g/dL
gamma-GTP ([…], time 7 day): 1.8 IU/L
A/G ([…], time 14 day): 1.1
ALP ([…], time 14 day): 1520 IU/L
ALT ([…], time 14 day): 43.4 IU/L
AST ([…], time 14 day): 69.6 IU/L
BUN ([…], time 14 day): 18.6 mg/dL
CRE ([…], time 14 day): 0.2 mg/dL
Ca ([…], time 14 day): 10.5 mg/dL
Cl ([…], time 14 day): 106.8 meq/L
DBIL ([…], time 14 day): 0 mg/dL
GLC ([…], time 14 day): 196.8 mg/dL
IP ([…], time 14 day): 6.8 mg/dL
K ([…], time 14 day): 4.2 meq/L
LDH ([…], time 14 day): 154.2 IU/L
Na ([…], time 14 day): 141.4 meq/L
PL ([…], time 14 day): 152.8 mg/dL
RALB ([…], time 14 day): 3 g/dL
TBIL ([…], time 14 day): 0.002 mg/dL
TC ([…], time 14 day): 80.4 mg/dL
TG ([…], time 14 day): 136.8 mg/dL
TP ([…], time 14 day): 5.9 g/dL
gamma-GTP ([…], time 14 day): 2.4 IU/L
A/G ([…], time 28 day): 1
ALP ([…], time 28 day): 1106 IU/L
ALT ([…], time 28 day): 37.8 IU/L
AST ([…], time 28 day): 62.4 IU/L
BUN ([…], time 28 day): 17.6 mg/dL
CRE ([…], time 28 day): 0.2 mg/dL
Ca ([…], time 28 day): 10.5 mg/dL
Cl ([…], time 28 day): 106 meq/L
DBIL ([…], time 28 day): 0 mg/dL
GLC ([…], time 28 day): 197.2 mg/dL
IP ([…], time 28 day): 6.5 mg/dL
K ([…], time 28 day): 3.8 meq/L
LDH ([…], time 28 day): 154.6 IU/L
Na ([…], time 28 day): 142.8 meq/L
PL ([…], time 28 day): 146.4 mg/dL
RALB ([…], time 28 day): 3.1 g/dL
TBIL ([…], time 28 day): 0.014 mg/dL
TC ([…], time 28 day): 67.8 mg/dL
TG ([…], time 28 day): 174.2 mg/dL
TP ([…], time 28 day): 6.1 g/dL
gamma-GTP ([…], time 28 day): 2.4 IU/L
